Measurements taken from US20050239656A1, “Pyridine compounds or salts thereof and herbicides containing the same” (priority 2002, published 2005).

Legend:
barnyardgrass [1] = assay: Test Example 1: foliage treatment, upland pot test; type: in vivo, Echinochloa crus-galli L.; conditions: active ingredient 500 g/ha, observed 18th to 23rd day, 0 = non-treated, 100 = complete kill
How it was run: (§1)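 Pots of upland field soil were sown and sprayed post-emergence at soybean 0.1–0.4, wheat 1.3–2.4, rice 1.2–2.6 and barnyardgrass 1.3–2.8 leaf stages. Formulations were diluted in water at 500 L/ha with 0.1% (v/v) spreader. Growth control (0 = untreated, 100 = complete kill) was judged by eye 18–23 days later.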

crabgrass [2] = assay: Test Example 1: foliage treatment, upland pot test; type: in vivo, Digitaria sanguinalis L.; conditions: active ingredient 500 g/ha, observed 18th to 23rd day, 0 = non-treated, 100 = complete kill
green foxtail [3] = assay: Test Example 1: foliage treatment, upland pot test; type: in vivo, Setaria viridis L.; conditions: active ingredient 500 g/ha, observed 18th to 23rd day, 0 = non-treated, 100 = complete kill
redroot pigweed [4] = assay: Test Example 1: foliage treatment, upland pot test; type: in vivo, Amaranthus retroflexus L.; conditions: active ingredient 500 g/ha, observed 18th to 23rd day, 0 = non-treated, 100 = complete kill
prickly sida [5] = assay: Test Example 1: foliage treatment, upland pot test; type: in vivo, Sida spinosa L.; conditions: active ingredient 500 g/ha, observed 18th to 23rd day, 0 = non-treated, 100 = complete kill
velvetleaf [6] = assay: Test Example 1: foliage treatment, upland pot test; type: in vivo, Abutilon theophrasti MEDIC.; conditions: active ingredient 500 g/ha, observed 18th to 23rd day, 0 = non-treated, 100 = complete kill
tall morningglory = assay: Test Example 1: foliage treatment, upland pot test; type: in vivo, Ipomoea purpurea L.; conditions: active ingredient 500 g/ha, observed 18th to 23rd day, 0 = non-treated, 100 = complete kill
From the text: Upland field soil was put into a 1/170,000 ha pot, and seed of various plants were sown. Then, when the plants reached predetermined leaf stages ((1) barnyardgrass: 1.3 to 2.8 leaf stages, (2) crabgrass: 1.0 to 2.8 leaf stages, (3) green foxtail: 1.3 to 2.6 leaf stages, (4) redroot pigweed: 0.1 to 1.2 leaf stages, (5) prickly sida: 0.1 to 1.2 leaf stages, (6) velvetleaf: 0.1 to 1.2 leaf stages, (7) tall morningglory: 0.1 to 1.5 leaf stages, (8) rice: 1.2 to 2.6 leaf stages, (9) wheat: 1.3 to 2.4 leaf stages, (10) corn, 2.1 to 3.2 leaf stages, (11) soybean: 0.1 to 0.4 leaf stage), a wettable powder or emulsifiable concentrate having the compound of the present invention formulated in accordance with a usual formulation method, was weighed so that the active ingredient would be a predetermined amount, and diluted with water in an amount of 500 L/ha. To the diluted solution, 0.1% (v/v) of agricultural spreader was added. The herbicide thus adjusted was applied by a small size sprayer for foliage treatment. On the 18th to 23rd days after the application of the herbicide, the growth of the respective plants was visually observed, and the herbicidal effects were evaluated by the growth controlling degrees (%) ranging from 0 (equivalent to the non-treated plot) to 100 (complete kill), whereby the results shown in Table 3, were obtained.

rice [7] = assay: Test Example 1: foliage treatment, upland pot test; type: in vivo, Oryza sativa L.; conditions: crop, active ingredient 500 g/ha, observed 18th to 23rd day, 0 = non-treated, 100 = complete kill
How it was run: as §1

corn [8] = assay: Test Example 1: foliage treatment, upland pot test; type: in vivo, Zea mays L.; conditions: crop, active ingredient 500 g/ha, observed 18th to 23rd day, 0 = non-treated, 100 = complete kill
How it was run: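 In this upland pot foliage test, corn plants at 2.1 to 3.2 leaf stages were sprayed by a small size sprayer. The spray was a conventionally formulated wettable powder or emulsifiable concentrate weighed to a set active ingredient amount, diluted in water at 500 L/ha, plus 0.1% (v/v) agricultural spreader. Visual assessment on days 18 to 23 gave growth controlling degree (%), where 0 equals untreated and 100 means complete kill.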

soybean [9] = assay: Test Example 1: foliage treatment, upland pot test; type: in vivo, Glycine max Merr.; conditions: crop, active ingredient 500 g/ha, observed 18th to 23rd day, 0 = non-treated, 100 = complete kill
How it was run: as §1

barnyardgrass [10] = assay: Test Example 2: soil surface treatment, upland pot test; type: in vivo, Echinochloa crus-galli L.; conditions: observed 20th to 28th day
How it was run: (§2)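 Visual growth-control ratings, from 0 (like the non-treated plot) to 100 (total kill), were made between days 20 and 28 after a soil-surface spray. The compound, formulated as wettable powder or emulsifiable concentrate and diluted at 1,500 L/ha, went on one day post-sowing in upland-soil pots of 1/170,000 ha.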

crabgrass [11] = assay: as above; type: in vivo, Digitaria sanguinalis L.; conditions: observed 20th to 28th day
How it was run: as §2

green foxtail [12] = assay: as above; type: in vivo, Setaria viridis L.; conditions: observed 20th to 28th day
How it was run: as §2

redroot pigweed [13] = assay: as above; type: in vivo, Amaranthus retroflexus L.; conditions: observed 20th to 28th day
How it was run: as §2

prickly sida [14] = assay: as above; type: in vivo, Sida spinosa L.; conditions: observed 20th to 28th day
How it was run: as §2

velvetleaf [15] = assay: as above; type: in vivo, Abutilon theophrasti MEDIC.; conditions: observed 20th to 28th day
How it was run: as §2

rice [16] = assay: as above; type: in vivo, Oryza sativa L.; conditions: observed 20th to 28th day
How it was run: as §2

wheat [17] = assay: as above; type: in vivo, Triticum spp.; conditions: observed 20th to 28th day
How it was run: as §2

corn [18] = assay: as above; type: in vivo, Zea mays L.; conditions: observed 20th to 28th day
How it was run: as §2

soybean [19] = assay: as above; type: in vivo, Glycine max Merr.; conditions: observed 20th to 28th day
How it was run: as §2

barnyardgrass [20] = assay: Test Example 3: paddy pot test, application under submerged conditions; type: in vivo, Echinochloa crus-galli L.; conditions: submerged application at 0.5 leaf stage, visually observed 14 days after application, 0 = non-treated, 100 = complete kill
How it was run: (§3)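 After sowing seeds and planting wapato tubers in flooded paddy soil, an aqueous dilution of the formulated compound was added to the 3–4 cm flood water at early leaf stage. Percent growth control relative to the untreated plot was assessed visually on day 14.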

japanese bulrush = assay: as above; type: in vivo, Scirpus juncoides; conditions: submerged application at 0.5 leaf stage, visually observed 14 days after application, 0 = non-treated, 100 = complete kill
How it was run: as §3

japanese ribbon wapato = assay: as above; type: in vivo, Sagittaria pygniaea; conditions: submerged application at primary leaf stage, visually observed 14 days after application, 0 = non-treated, 100 = complete kill
How it was run: as §3

rice (var. Nihonbare) = assay: Test Example 3: paddy pot test, transplanted rice; type: in vivo, Oryza sativa L.; conditions: applied 4th day after transplantation, visually observed 21st day after application, 0 = non-treated, 100 = complete kill
How it was run: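 Rice (2-leaf stage) was transplanted 3 cm deep into puddled, leveled paddy soil under 3–4 cm flooding. On day 4 after transplanting, diluted wettable powder or emulsifiable concentrate was pipetted onto the water at a predetermined active-ingredient dose. Growth control (0 = untreated, 100 = complete kill) was scored visually 21 days later.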

wheat [21] = assay: Test Example 1: foliage treatment, upland pot test; type: in vivo, Triticum spp.; conditions: crop, active ingredient 500 g/ha, observed 18th to 23rd day, 0 = non-treated, 100 = complete kill
How it was run: as §1

| SMILES | Growth controlling degree (%) Barnyardgrass (barnyardgrass [1]) | Growth controlling degree (%) Crabgrass (crabgrass [2]) | Growth controlling degree (%) Green foxtail (green foxtail [3]) | Growth controlling degree (%) Redroot pigweed (redroot pigweed [4]) | Growth controlling degree (%) Prickly sida (prickly sida [5]) | Growth controlling degree (%) Velvetleaf (velvetleaf [6]) | Growth controlling degree (%) Rice (rice [7]) | Growth controlling degree (%) Corn (corn [8]) | Growth controlling degree (%) Soybean (soybean [9]) | Growth controlling degree (%) wheat (wheat [21]) | Growth controlling degree (%) Barnyardgrass (barnyardgrass [10]; active ingredient 250 g/ha) | Growth controlling degree (%) Crabgrass (crabgrass [11]; active ingredient 250 g/ha) | Growth controlling degree (%) Green foxtail (green foxtail [12]; active ingredient 250 g/ha) | Growth controlling degree (%) Redroot pigweed (redroot pigweed [13]; active ingredient 250 g/ha) | Growth controlling degree (%) Prickly sida (prickly sida [14]; active ingredient 250 g/ha) | Growth controlling degree (%) Velvetleaf (velvetleaf [15]; active ingredient 250 g/ha) | Growth controlling degree (%) Rice (rice [16]; active ingredient 250 g/ha) | Growth controlling degree (%) wheat (wheat [17]; active ingredient 250 g/ha) | Growth controlling degree (%) Corn (corn [18]; active ingredient 250 g/ha) | Growth controlling degree (%) Soyabean (soybean [19]; active ingredient 250 g/ha) | other results |
| --- | --- | --- | --- | --- | --- | --- | --- | --- | --- | --- | --- | --- | --- | --- | --- | --- | --- | --- | --- | --- | --- |
| CC(C(=O)N(C)C(c1cnccc1C(F)(F)F)C(C)C)c1ccccc1 (stereo not drawn) [I-12] | 50% | 95% | 60% | 50% | 60% | 80% | 0% | 10% | 30% |  |  |  |  |  |  |  |  |  |  |  | Growth controlling degree (%) Tall morningglory (tall morningglory): 70%; Growth controlling degree (%) Barnyardgrass (barnyardgrass [10]; active ingredient 1000 g/ha, 0 = non-treated, 100 = complete kill): 100%; Growth controlling degree (%) Crabgrass (crabgrass [11]; active ingredient 1000 g/ha): 100%; Growth controlling degree (%) Green foxtail (green foxtail [12]; active ingredient 1000 g/ha): 100%; Growth controlling degree (%) Redroot pigweed (redroot pigweed [13]; active ingredient 1000 g/ha): 90%; Growth controlling degree (%) Prickly sida (prickly sida [14]; active ingredient 1000 g/ha): 90%; Growth controlling degree (%) Velvetleaf (velvetleaf [15]; active ingredient 1000 g/ha): 80%; Growth controlling degree (%) Rice (rice [16]; active ingredient 1000 g/ha): 10%; Growth controlling degree (%) wheat (wheat [17]; active ingredient 1000 g/ha): 40%; Growth controlling degree (%) Corn (corn [18]; active ingredient 1000 g/ha): 0%; Growth controlling degree (%) Soyabean (soybean [19]; active ingredient 1000 g/ha): 20%; Growth controlling degree (%) Barnyardgrass (barnyardgrass [20]; active ingredient 500 g/ha): 100%; Growth controlling degree (%) Japanese bulrush (japanese bulrush; active ingredient 500 g/ha): 100%; Growth controlling degree (%) Japanese ribbon wapato (japanese ribbon wapato; active ingredient 500 g/ha): 70%; Growth controlling degree (%) Rice (rice (var. Nihonbare); active ingredient 500 g/ha): 30% |
| COCC(=O)N(C)C(c1cnccc1C(F)(F)F)C(C)C (stereo not drawn) [I-195] | 70% | 80% | 60% | 80% | 70% | 60% | 70% | 10% | 60% | 30% | 98% | 98% | 60% | 30% | 30% | 10% | 40% | 10% | 20% | 10% | Growth controlling degree (%) Barnyardgrass (barnyardgrass [20]; active ingredient 250 g/ha): 70%; Growth controlling degree (%) Japanese bulrush (japanese bulrush; active ingredient 250 g/ha): 100%; Growth controlling degree (%) Japanese ribbon wapato (japanese ribbon wapato; active ingredient 250 g/ha): 80%; Growth controlling degree (%) Rice (rice (var. Nihonbare); active ingredient 250 g/ha): 20% |
| CC(C)C(c1cnccc1C(F)(F)F)N(C)C(=O)C(Br)C(C)(C)C (stereo not drawn) [I-196] | 60% | 60% | 40% | 50% | 70% | 10% | 40% | 10% | 40% | 40% | 70% | 90% | 95% | 60% | 60% | 30% | 30% | 10% | 30% | 10% | Growth controlling degree (%) Barnyardgrass (barnyardgrass [20]; active ingredient 250 g/ha): 98%; Growth controlling degree (%) Japanese bulrush (japanese bulrush; active ingredient 250 g/ha): 100%; Growth controlling degree (%) Japanese ribbon wapato (japanese ribbon wapato; active ingredient 250 g/ha): 50%; Growth controlling degree (%) Rice (rice (var. Nihonbare); active ingredient 250 g/ha): 10% |
